Legend:
[1] = tested on: human T-cell derived lyphoblastic leukemia cells (CCRF-CEM); test: Inhibition of growth of CCRF-CEM cell cultures; assay type: cell-based
From the text: (§1) As noted, the compounds of this invention have an effect on one or more enzymes which utilize folic acid, and in particular metabolic derivatives of folic acid, as a substrate. […] Cytotoxicity is not reversed by addition of purines such as hypoxanthine or by addition of aminoimidazolecarboxamide but is reversed by addition of thymidine, indicating specific inhibition in the tymidylate cycle and not in de novo purine synthesis. The compounds can be used, under the supervision of qualified professionals, to inhibit the growth of neoplasms including choriocarcinoma, leukemia, adenocarcinoma of the female breast, epidermid cancers of the head and neck, squamous or small-cell lung cancer, and various lymphosarcomas. The compounds can also be used to treat mycosis fungoides and psoriasis.
Representative inhibition values against CCRF-CEM 5 cell cultures for typical compounds are as follows: […]

[2] = tested on: human T-cell derived lyphoblastic leukemia cells (CCRF-CEM); test: Reversal of cytotoxicity by addition of hypoxanthine/purines, AICA, thymidine or leucovorin; assay type: cell-based
From the text: as §1
Cytotoxicity is also reversed by addition of leucovorin, indicating the cytotoxicity is due to antagonism of a folate-related mechanism.

[3] = tested on: L5178Y/TK^- tumor line; test: In vivo activity against L5178Y/TK^- tumor line in DBA/2 mice (female)
Description: In vivo activity can be seen from the following representative data for N-{4-[2-(4-hydroxy-6-aminopyrrolo[2,3-d]pyrimidin-3-yl)ethyl]benzoyl}-L-glutamic acid against the L5178Y/TK^- tumor line in DBA/2 mice (female), administration being ip in a total volume of 0.5 mL daily for eight days: […]

[4] = dose 25.00, ip daily for eight days
[5] = dose 50.00, ip daily for eight days
[6] = dose 100.00, ip daily for eight days
[7] = dose 200.00, ip daily for eight days

Compound	IC50 [1] [µg/mL]	Reversal of cytotoxicity by addition of aminoimidazolecarboxamide (AICA) ([2]; addition of aminoimidazolecarboxamide (AICA))	Reversal of cytotoxicity by addition of purines such as hypoxanthine ([2]; addition of hypoxanthine)	Reversal of cytotoxicity by addition of thymidine ([2]; addition of thymidine)	Toxicity ([3]; dose 12.50, ip daily for eight days)	% Inhibition [3, 4] [%]	Toxicity [3, 4]	Tumor Weight [3, 4]	% Inhibition [3, 5] [%]	Toxicity [3, 5]	Tumor Weight [3, 5]	% Inhibition [3, 6] [%]	Toxicity [3, 6]	Tumor Weight [3, 6]	% Inhibition [3, 7] [%]	Toxicity [3, 7]	Tumor Weight [3, 7]
Nc1nc(O)c2c(CCc3ccc(C(=O)N[C@@H](CCC(=O)O)C(=O)O)o3)c[nH]c2n1 [N-{5-[2-(4-hydroxy-6-aminopyrrolo[2,3-d]pyrimidin-3-yl)ethyl]fur-2-ylcarbonyl}-L-glutamic acid]	> 20																
Nc1nc2[nH]cc(CCc3ccc(C(=O)N[C@@H](CCC(=O)O)C(=O)O)cc3)c2c(=O)[nH]1		not reversed	not reversed	reversed	0/7	100	0/7	0 ± 0	100	0/6	0 ± 0	100	0/7	0 ± 0	100	0/7	0 ± 0
